Drawing on patent US7772260B2, “Imidazo[2,1-b]-1,3,4-thiadiazole sulfonamides” (Aegera Therapeutics Inc., priority 2001, dated 2010), this text covers IC50 for 37 compounds.

In test [1] the test system is SCG neurons. As to the kind of experiment: cells. Type of test: cell-based, Sprague Dawley rats. Conditions: Taxol™ (50 ng/mL), viability 48 hours later, MTS, read-out: IC(50), protection of SCG neurons from Taxol killing.
The target of test [2] is CA II (Homo sapiens, UniProt P00918). As to the kind of experiment: CA II inhibition. Type of test: biochemical. Conditions: read-out: IC(50), CA II inhibition. The method, then: CA II inhabition was measured using the protocol described by Pocker, Y.'Stone, J. Biochemistry 1967, 6, 668.
Test [3] has as its system SCG neurons. As to the kind of experiment: Protection of SCG neurons from anti-NGF killing. The class given is cell-based, Sprague Dawley rats. Conditions: anti-NGF antibody, serum and NGF free 48 hours, Alamar Blue, +/−1 uM, read-out: IC(50), rescue from anti-NGF killing of SCG neurons. How it is done: Neurotrophins are critical to the growth, development, and survival of small fiber neurons of the PNS. SCG neurons are neurons of the PNS that undergo apoptosis upon NGF withdrawal. In a typical experiment SCG neurons are cultured in the presence of NGF, which induces survival and neurite out-growth. After 5 days the NGF is removed by either the addition of anti-NGF polyclonal antibody (Sigma) or by repeated washings (4 times) with NGF free media, resulting in the apoptosis of up to 90% of the neurons after 48 hours, as measured by MTS staining.
After 4 days the cells were treated with anti-NGF antibody (Sigma). At this time compound was added and the cells were maintained serum and NGF free for 48 hours, at which time viability was assessed using Alamar Blue (Medicorp) staining.

[4] abbreviates: Rattus norvegicus, Neuron, 48 h.

“And” between values parts separate entries of the source, which are not always exact repeats. Equal entries are not always repeated. Structures can show the parent of a compound that is named as a salt. Some results are limits rather than exact numbers.

As to `NS(=O)(=O)c1nn2cc(-c3ccc4c(c3)OCCCO4)nc2s1` [Compound 21, 6-(3,4-dihydro-2H-1,5-benzodioxepin-7-yl)imidazo[2,1-b]-1,3,4-thiadiazole-2-sulfonamide], the IC50 in test [1] (Rattus norvegicus, Neuron) amounted to 7 µM; in test [2], 5.32 µM; in test [3] (Rattus norvegicus, Neuron) it was 22 µM.

On to `CC(C)c1ccc(Oc2ccc(-c3cn4nc(S(N)(=O)=O)sc4n3)cc2)cc1` [Compound 97, 6-(4-(4-iso-propylphenoxy)phenyl)imidazo[2,1-b]-1,3,4-thiadiazole-2-sulfonamide], for which the IC50 in test [3] (Rattus norvegicus, Neuron) stood at 7 µM.

In the case of `NS(=O)(=O)c1nn2cc(-c3ccc(OCCO)cc3)nc2s1` [Compound 26], the IC50 came to 7 µM in test [1] (Rattus norvegicus, Neuron) and 23 µM in test [3] (Rattus norvegicus, Neuron).

With `NS(=O)(=O)c1nn2cc(-c3ccc4c(c3)OC3(CCCCC3)O4)nc2s1` [Compound 23, 6-(2-spiro(cyclohexyl)benzo-1,3-dioxol-5-yl)imidazo[2,1,-b]-1,3,4-thiadiazole-2-sulfonamide], the IC50 in test [3] (Rattus norvegicus, Neuron) came to 25 µM.

Turning to `NS(=O)(=O)c1nn2cc(-c3ccc(-c4cccc(C(F)(F)F)c4)cc3)nc2s1` [Compound 81, 6-(4-(3-trifluoromethylphenyl)phenyl)imidazo[2,1-b]-1,3,4-thiadiazole-2-sulfonamide], the IC50 stood at 3 µM in test [1] (Rattus norvegicus, Neuron); 1.58 µM in test [2]; 5 µM in test [3] (Rattus norvegicus, Neuron).

Turning to `NS(=O)(=O)c1nn2cc(-c3ccc(-c4ccccc4)cc3)nc2s1` [Compound 72, 6-(Biphenyl)imidazo[2,1-b]-1,3,4-thiadiazole-2-sulfonamide], the IC50 in test [1] (Rattus norvegicus, Neuron) is 10 µM; in test [2], 1.61 µM and 2.19 µM; in test [3] (Rattus norvegicus, Neuron), 17 µM.

On to `NS(=O)(=O)c1nn2cc(-c3ccc(Oc4ccc(Cl)cc4)cc3)nc2s1` [Compound 91, 6-(4-chlorophenoxyphenyl)imidazo[2,1-b]-1,3,4-thiadiazole-2-sulfonamide], for which the IC50 in test [3] (Rattus norvegicus, Neuron) was 7 µM.

On to `COc1cc(-c2cn3nc(S(N)(=O)=O)sc3n2)ccc1OCCCOCc1ccccc1` [Compound 36], for which the IC50 in test [3] (Rattus norvegicus, Neuron) was 17 µM.

As to `NS(=O)(=O)c1nn2cc(-c3ccc(-c4ccc(CO)cc4)cc3)nc2s1` [Compound 74, 6-(4-(hydroxymethylphenyl)phenyl)imidazo[2,1-b]-1,3,4-thiadiazole-2-sulfonamide], the IC50 was 7 µM in test [1] (Rattus norvegicus, Neuron); 1.68 µM in test [2]; 20 µM in test [3] (Rattus norvegicus, Neuron).

As for `COc1cc(-c2cn3nc(S(N)(=O)=O)sc3n2)ccc1OCCO` [Compound 34], the IC50 in test [3] (Rattus norvegicus, Neuron) is above 30 µM.

Consider `COc1cccc(-c2ccc(-c3cn4nc(S(N)(=O)=O)sc4n3)cc2)c1` [Compound 149, 6-(3′-methoxybiphen-4-yl)imidazo[2,1-b]-1,3,4-thiadiazole-2-sulfonamide sodium salt], for which the IC50 in test [3] (setting [4]) came out at 7 µM.

In the case of `NS(=O)(=O)c1nn2cc(-c3c(F)c(F)c(N4CCOCC4)c(F)c3F)nc2s1` [Compound 9, 6-(4-Morpholino-2,3,5,6-tetrafluorophenyl)imidazo[2,1-b]-1,3,4-thiadiazole-2-sulfonamide], the IC50 in test [3] (Rattus norvegicus, Neuron) stood at 8 µM.

Take `COc1ccc(Oc2ccc(-c3cn4nc(S(N)(=O)=O)sc4n3)cc2)cc1` [Compound 98, 6-(4-(4-methoxyphenoxy)phenyl)imidazo[2,1-b]-1,3,4-thiadiazole-2-sulfonamide]: in test [3] (Rattus norvegicus, Neuron), the IC50 was 17 µM.

On to `NS(=O)(=O)c1nn2cc(-c3ccc(-c4cccs4)cc3)nc2s1` [Compound 84, 6-(thiophen-2-yl-phenyl)imidazo[2,1-b]-1,3,4-thiadiazole-2-sulfonamide], for which the IC50 in test [3] (Rattus norvegicus, Neuron) is above 30 µM.

For `NS(=O)(=O)c1nn2cc(-c3ccccc3F)nc2s1` [Compound 2, 6-(2-Fluorophenyl)imidazo[2,1-b]-1,3,4-thiadiazole-2-sulfonamide], the IC50 in test [3] (Rattus norvegicus, Neuron) is 20 µM.

Regarding `NS(=O)(=O)c1nn2cc(-c3ccc(Oc4ccccc4Br)cc3)nc2s1` [Compound 93, 6-(2-bromophenoxyphenyl)imidazo[2,1-b]-1,3,4-thiadiazole-2-sulfonamide], the IC50 in test [3] (Rattus norvegicus, Neuron) worked out at 7 µM.

For the compound `COc1ccc(-c2cccc(-c3cn4nc(S(N)(=O)=O)sc4n3)c2)cc1` [Compound 86, 6-(4′methoxybiphen-3-yl)imidazo[2,1-b]-1,3,4-thiadiazole-2-sulfonamide], the IC50 in test [3] (Rattus norvegicus, Neuron) was 17 µM.

For `NS(=O)(=O)c1nn2cc(-c3ccc(-c4cccc(C(F)(F)F)c4)cc3)nc2s1` [Compound 150, 6-(3′-trifluoromethylbiphen-4-yl)imidazo[2,1-b]-1,3,4-thiadiazole-2-sulfonamide sodium salt], in test [3] (setting [4]), the IC50 came to 7 µM.

On to `NS(=O)(=O)c1nn2cc(-c3ccc(Oc4cccc(Br)c4)cc3)nc2s1` [Compound 94, 6-(3-bromophenoxyphenyl)imidazo[2,1-b]-1,3,4-thiadiazole-2-sulfonamide], for which, in test [3] (Rattus norvegicus, Neuron), the IC50 stood at 10 µM.

For the compound `NS(=O)(=O)c1nn2cc(-c3cccc(F)c3)nc2s1` [Compound 3, 6-(3-Fluorophenyl)imidazo[2,1-b]-1,3,4-thiadiazole-2-sulfonamide], the IC50 in test [3] (Rattus norvegicus, Neuron) came to 10 µM.

As for `NS(=O)(=O)c1nn2cc(-c3ccc(-c4ccc5c(c4)OCO5)cc3)nc2s1` [Compound 79], the IC50 in test [3] (Rattus norvegicus, Neuron) was 7 µM.

As for `NS(=O)(=O)c1nn2cc(-c3ccccn3)nc2s1` [Compound 106, 6-(2-Pyridyl)imidazo[2,1-b]-1,3,4-thiadiazole-2-sulfonamide HCl], the IC50 in test [3] (Rattus norvegicus, Neuron) was 7 µM.

For the compound `NS(=O)(=O)c1nn2cc(-c3ccc(Oc4ccc(F)c(F)c4)cc3)nc2s1` [Compound 89, 6-(4-(3,4-difluorophenoxy)phenyl)imidazo[2,1-b]-1,3,4-thiadiazole-2-sulfonamide], the IC50 in test [3] (Rattus norvegicus, Neuron) came out at 10 µM.

Regarding `NS(=O)(=O)c1nn2cc(-c3ccc(-c4ccsc4)cc3)nc2s1` [Compound 85, 6-(thiophen-3-yl-phenyl)imidazo[2,1-b]-1,3,4-thiadiazole-2-sulfonamide], the IC50 in test [3] (Rattus norvegicus, Neuron) is above 30 µM.

With `COc1cc(-c2cn3nc(S(N)(=O)=O)sc3n2)ccc1OCCOCc1ccccc1` [Compound 35], in test [3] (Rattus norvegicus, Neuron), the IC50 was above 30 µM.

Turning to `CN(C)c1cccc(Oc2ccc(-c3cn4nc(S(N)(=O)=O)sc4n3)cc2)c1` [Compound 96, 6-(3-dimethylaminophenoxyphenyl)imidazo[2,1-b]-1,3,4-thiadiazole-2-sulfonamide], the IC50 in test [3] (Rattus norvegicus, Neuron) came out at 20 µM.

Consider `NS(=O)(=O)c1nn2cc(-c3ccc(Oc4ccc(Cl)c(Cl)c4)cc3)nc2s1` [Compound 92, 6-(3,4-dichlorophenoxyphenyl)imidazo[2,1-b]-1,3,4-thiadiazole-2-sulfonamide], for which the IC50 in test [3] (Rattus norvegicus, Neuron) was found to be 7 µM.

`COc1ccccc1-c1cn2nc(S(N)(=O)=O)sc2n1` [Compound 15, 6-(2-Methoxyphenyl)imidazo[2,1-b]-1,3,4-thiadiazole-2-sulfonamide]: the IC50 in test [1] (Rattus norvegicus, Neuron) was found to be 10 µM; in test [2] it was 0.152 µM.

For `COc1cccc(-c2cn3nc(S(N)(=O)=O)sc3n2)c1` [Compound 16, 6-(3-Methoxyphenyl)imidazo[2,1-b]-1,3,4-thiadiazole-2-sulfonamide], the IC50 worked out at 5 µM in test [1] (Rattus norvegicus, Neuron) and 0.15 µM in test [2].

For the compound `NS(=O)(=O)c1nn2cc(-c3c(F)c(F)c(SCc4ccccc4)c(F)c3F)nc2s1` [Compound 8, 6-(4-Benzylthio-2,3,5,6-tetrafluorophenyl)imidazo[2,1-b]-1,3,4-thiadiazole-2-sulfonamide], the IC50 was 5 µM in test [1] (Rattus norvegicus, Neuron) and 1.47 µM in test [2].

For the compound `NS(=O)(=O)c1nn2cc(-c3ccc(OC(F)(F)F)cc3)nc2s1` [Compound 25, 6-(4-trifloromethoxyphenyl)imidazo[2,1-b]-1,3,4-thiadiazole-2-sulfonamide], the IC50 in test [1] (Rattus norvegicus, Neuron) worked out at 5 µM; in test [2], 0.302 µM.

With `NS(=O)(=O)c1nn2cc(-c3ccc(F)c(F)c3)nc2s1` [Compound 5, 6-(3,4-Difluorophenyl)imidazo[2,1-b]-1,3,4-thiadiazole-2-sulfonamide], the IC50 was 5 µM in test [1] (Rattus norvegicus, Neuron) and 0.192 µM in test [2].

As for `NS(=O)(=O)c1nn2cc(-c3c(F)c(F)c(F)c(F)c3F)nc2s1` [Compound 6, 6-(2,3,4,5,6-Pentafluorophenyl)imidazo[2,1-b]-1,3,4-thiadiazole-2-sulfonamide], the IC50 is 3 µM in test [1] (Rattus norvegicus, Neuron) and 0.164 µM in test [2].

On to “6-(4-bromophenoxyphenyl)imidazo[2,1-b]-1,3,4-thiadiazole-2-sulfonamide [Compound 95]”, for which the IC50 in test [1] worked out at 3 µM; in test [3] it was 7 µM.

Regarding `NS(=O)(=O)c1nn2cc(-c3ccc(Cl)c(Cl)c3Cl)nc2s1` [Compound 12, 6-(2,3,4-trichlorophenyl)imidazo[2,1-b]-1,3,4-thiadiazole-2-sulfonamide], the IC50 is 5 µM in test [1] (Rattus norvegicus, Neuron) and 1.59 µM in test [2].

As for `Cc1ccc(-c2cn3nc(S(N)(=O)=O)sc3n2)c(C)c1` [Compound 48, 6-(2,4-dimethylphenyl)imidazo[2,1-b]-1,3,4-thiadiazole-2-sulfonamide], the IC50 was 5 µM in test [1] (Rattus norvegicus, Neuron) and 0.288 µM in test [2].

With `NS(=O)(=O)c1nn2cc(-c3ccc(Oc4ccc(F)cc4)cc3)nc2s1` [Compound 88], the IC50 in test [3] (Rattus norvegicus, Neuron) came out at 10 µM.
